Laboratory results reported in paper PMC7725003, “Systematically Studying the Optimal Amino Acid Distribution Patterns of the Amphiphilic Structure by Using the Ultrashort Amphiphiles” (Frontiers in Microbiology, 2020).
Where no end group is shown, it is not given here.

Legend:
Gram-positive bacteria = settings: for GM, Gram-positive bacteria: geometric mean of MICs (Table 3); for TI, Gram-positive bacteria: therapeutic index TI = MHC/GM MIC
Method: (§1) The antimicrobial activity of AMPs is the most decisive index for evaluating the clinical application of antimicrobial drugs.
(§2) The antimicrobial activities of the peptides were measured using a method adapted from the National Committee for Clinical Laboratory Standards (NCCLS) with some modifications ([Chou et al., 2016]). The specific procedure for these assays has been previously described. In brief, the bacterial cells were grown to a mid-logarithmic phase and diluted in MHB to an ultimate concentration of 0.5–1 × 10^6 CFU mL^–1. Subsequently, the peptides were consecutively diluted in a 0.2% BSA solution and then added to a bacterial solution in a 96-well plate at identical volumes. After incubation for 24 h at 37°C, the MICs were determined to be the lowest peptide concentration that inhibited 95% of the bacterial growth by monitoring the absorbance at 492 nm using a microplate reader. Subsequently, 50 μL of each incubation mixture was further transferred to agar plates and incubated overnight. […] Every assay was reproduced more than 3 times.

Gram-negative bacteria = settings: for GM, Gram-negative bacteria: geometric mean of MICs (Table 3); for TI, Gram-negative bacteria: therapeutic index TI = MHC/GM MIC
Method: as §1, §2

[1] = test system: Listeria monocytogenes CGMCC 1.1075; type: cell-based; settings: CGMCC 1.1075, 24 h
Method: (§3) The antimicrobial activities of the peptides were measured using a method adapted from the National Committee for Clinical Laboratory Standards (NCCLS) with some modifications ([Chou et al., 2016]). The specific procedure for these assays has been previously described. In brief, the bacterial cells were grown to a mid-logarithmic phase and diluted in MHB to an ultimate concentration of 0.5–1 × 10^6 CFU mL^–1. Subsequently, the peptides were consecutively diluted in a 0.2% BSA solution and then added to a bacterial solution in a 96-well plate at identical volumes. After incubation for 24 h at 37°C, the MICs were determined to be the lowest peptide concentration that inhibited 95% of the bacterial growth by monitoring the absorbance at 492 nm using a microplate reader. Subsequently, 50 μL of each incubation mixture was further transferred to agar plates and incubated overnight. The minimum bactericidal concentrations (MBCs) were determined as the lowest peptide concentration that killed greater than 99.9% of the bacterial cells. Every assay was reproduced more than 3 times.

S. epidermidis 12228 = type: cell-based, Staphylococcus epidermidis; settings: 12228, 24 h
Method: as §3

S. aureus 25923 = type: cell-based, Staphylococcus aureus; settings: 25923, 24 h
Method: as §3

S. aureus 29213 [2] = type: cell-based, Staphylococcus aureus; settings: 29213, 24 h
Method: as §3

S. typhimurium 7731 = type: cell-based, Salmonella typhimurium; settings: 7731, 24 h
Method: as §3

S. typhimurium 14028 = type: cell-based, Salmonella typhimurium; settings: 14028, 24 h
Method: as §3

P. aeruginosa 27853 = type: cell-based, Pseudomonas aeruginosa; settings: 27853, 24 h
Method: as §3

[3] = test system: all of the tested bacterial strains; assay: Geometric mean of MICs, all tested bacterial strains; type: cell-based; settings: for GM, All: geometric mean of MICs across all tested strains; for TI, All: therapeutic index TI = MHC/GM MIC
Text: The antimicrobial activity of AMPs is the most decisive index for evaluating the clinical application of antimicrobial drugs. Many antimicrobial agents inhibit bacterial growth rather than kill the bacteria quickly, and long-term infections are pathogens that are not completely killed, which results in bacterial severe drug resistance. […] The geometric mean (GM) values of the MICs/MBCs of the two series across all of the tested bacterial strains are represented in Table 3, which depicts the average bacteriostatic/bactericidal level of a peptide.
as §3

MRSA 43300 = type: cell-based, methicillin-resistant S. aureus; settings: 43300, 24 h
Method: as §3

B. subtilis 63501 = type: cell-based, Bacillus subtilis; settings: 63501, 24 h
Method: as §3

S. pullorum 7913 = type: cell-based, Salmonella pullorum; settings: 7913, 24 h
Method: as §3

E. faecalis 29212 = type: cell-based, Enterococcus faecalis; settings: 29212, 24 h
Method: as §3

E. coli ATCC 25922 = assay: Salt sensitivity assay (MIC); type: cell-based, Escherichia coli; settings: for MIC, FeCl3: 4 μM FeCl3; for MIC, NH4Cl: 6 μM NH4Cl; for MIC, ZnCl2: 8 μM ZnCl2; for MIC, MgCl2: 1 mM MgCl2; for MIC, CaCl2: 2 mM CaCl2; for MIC, KCl: 4.5 mM KCl; for MIC, NaCl: 150 mM NaCl; for MIC, Control: no added salt, three independent assays
Method: as §3
(§4) The salt sensitivities of the peptides were determined. E. coli ATCC 25922 and S. aureus ATCC 29213 were incubated in the presence of various ultimate concentrations of physiological salts (150 mM NaCl, 4.5 mM KCl, 6 μM NH4Cl, 8 μM ZnCl2, 1 mM MgCl2, 2mM CaCl2, and 4 μM FeCl3) according to our previous protocol ([Yang et al., 2019]). These tests were performed under the MICs, and three independent assays were performed.

E. coli 25922 = type: cell-based, Escherichia coli; settings: 25922, 24 h
Method: as §3

E. coli O78 = type: cell-based, Escherichia coli; settings: O78, 24 h
Method: as §3

E. coli UB1005 = type: cell-based, Escherichia coli; settings: UB1005, 24 h
Method: as §3

S. aureus 29213 [4] = assay: Salt sensitivity assay (MIC); type: cell-based, Staphylococcus aureus; settings: for MIC, FeCl3: 4 μM FeCl3; for MIC, NH4Cl: 6 μM NH4Cl; for MIC, ZnCl2: 8 μM ZnCl2; for MIC, MgCl2: 1 mM MgCl2; for MIC, CaCl2: 2 mM CaCl2; for MIC, KCl: 4.5 mM KCl; for MIC, NaCl: 150 mM NaCl; for MIC, Control: no added salt, three independent assays
Method: as §3, §4

WWRWRRRWW-NH2 [W2]
GM, Gram-positive bacteria (Gram-positive bacteria): 2.97 µM
TI, Gram-positive bacteria (Gram-positive bacteria): 86.20
GM, Gram-negative bacteria (Gram-negative bacteria): 5.44 µM
TI, Gram-negative bacteria (Gram-negative bacteria): 47.06
MBC [1]: 32 µM
MIC [1]: 16 µM
MBC (S. epidermidis 12228): 4 µM
MIC (S. epidermidis 12228): 2 µM
MBC (S. aureus 25923): 4 µM
MIC (S. aureus 25923): 2 µM
MBC (S. aureus 29213 [2]): 4 µM
MIC (S. aureus 29213 [2]): 2 µM
MBC (S. typhimurium 7731): 8 µM
MIC (S. typhimurium 7731): 4 µM
MBC (S. typhimurium 14028): 16 µM
MIC (S. typhimurium 14028): 8 µM
MBC (P. aeruginosa 27853): 32 µM
MIC (P. aeruginosa 27853): 16 µM
GM, All [3]: 4.18 µM
TI, All [3]: 61.24
MBC (MRSA 43300): 4 µM
MIC (MRSA 43300): 2 µM
MBC (B. subtilis 63501): 2 µM
MIC (B. subtilis 63501): 1 µM
MBC (S. pullorum 7913): 8 µM
MIC (S. pullorum 7913): 4 µM
MBC (E. faecalis 29212): 16 µM
MIC (E. faecalis 29212): 8 µM
MIC, FeCl3 (E. coli ATCC 25922): 8 µM
MIC, NH4Cl (E. coli ATCC 25922): 4 µM
MIC, ZnCl2 (E. coli ATCC 25922): 4 µM
MIC, MgCl2 (E. coli ATCC 25922): 4 µM
MIC, CaCl2 (E. coli ATCC 25922): 8 µM
MIC, KCl (E. coli ATCC 25922): 4 µM
MIC, NaCl (E. coli ATCC 25922): 16 µM
MIC, Control (E. coli ATCC 25922): 4 µM
MBC (E. coli 25922): 8 µM
MIC (E. coli 25922): 4 µM
MBC (E. coli O78): 16 µM
MIC (E. coli O78): 8 µM
MBC (E. coli UB1005): 8 µM
MIC (E. coli UB1005): 4 µM
MIC, FeCl3 (S. aureus 29213 [4]): 4 µM
MIC, NH4Cl (S. aureus 29213 [4]): 2 µM
MIC, ZnCl2 (S. aureus 29213 [4]): 4 µM
MIC, MgCl2 (S. aureus 29213 [4]): 4 µM
MIC, CaCl2 (S. aureus 29213 [4]): 4 µM
MIC, KCl (S. aureus 29213 [4]): 4 µM
MIC, NaCl (S. aureus 29213 [4]): 4 µM
MIC, Control (S. aureus 29213 [4]): 2 µM

WRRRRWWWW-NH2 [W11]
GM, Gram-positive bacteria (Gram-positive bacteria): 2.21 µM
TI, Gram-positive bacteria (Gram-positive bacteria): 115.84
GM, Gram-negative bacteria (Gram-negative bacteria): 5.88 µM
TI, Gram-negative bacteria (Gram-negative bacteria): 43.54
MBC [1]: 8 µM
MIC [1]: 4 µM
MBC (S. epidermidis 12228): 4 µM
MIC (S. epidermidis 12228): 2 µM
MBC (S. aureus 25923): 4 µM
MIC (S. aureus 25923): 2 µM
MBC (S. aureus 29213 [2]): 4 µM
MIC (S. aureus 29213 [2]): 2 µM
MBC (S. typhimurium 7731): 16 µM
MIC (S. typhimurium 7731): 8 µM
MBC (S. typhimurium 14028): 16 µM
MIC (S. typhimurium 14028): 8 µM
MBC (P. aeruginosa 27853): 16 µM
MIC (P. aeruginosa 27853): 8 µM
GM, All [3]: 3.83 µM
TI, All [3]: 66.84
MBC (MRSA 43300): 4 µM
MIC (MRSA 43300): 2 µM
MBC (B. subtilis 63501): 2 µM
MIC (B. subtilis 63501): 1 µM
MBC (S. pullorum 7913): 8 µM
MIC (S. pullorum 7913): 4 µM
MBC (E. faecalis 29212): 8 µM
MIC (E. faecalis 29212): 4 µM
MIC, FeCl3 (E. coli ATCC 25922): 4 µM
MIC, NH4Cl (E. coli ATCC 25922): 2 µM
MIC, ZnCl2 (E. coli ATCC 25922): 2 µM
MIC, MgCl2 (E. coli ATCC 25922): 8 µM
MIC, CaCl2 (E. coli ATCC 25922): 16 µM
MIC, KCl (E. coli ATCC 25922): 8 µM
MIC, NaCl (E. coli ATCC 25922): 8 µM
MIC, Control (E. coli ATCC 25922): 4 µM
MBC (E. coli 25922): 8 µM
MIC (E. coli 25922): 4 µM
MBC (E. coli O78): 16 µM
MIC (E. coli O78): 8 µM
MBC (E. coli UB1005): 8 µM
MIC (E. coli UB1005): 4 µM
MIC, FeCl3 (S. aureus 29213 [4]): 2 µM
MIC, NH4Cl (S. aureus 29213 [4]): 1 µM
MIC, ZnCl2 (S. aureus 29213 [4]): 2 µM
MIC, MgCl2 (S. aureus 29213 [4]): 2 µM
MIC, CaCl2 (S. aureus 29213 [4]): 2 µM
MIC, KCl (S. aureus 29213 [4]): 1 µM
MIC, NaCl (S. aureus 29213 [4]): 2 µM
MIC, Control (S. aureus 29213 [4]): 2 µM
